Assays:
[1] = target: T1, human bradykinin 1 receptor (B1R) (Homo sapiens, UniProt P46663); assay: Functional investigation on the human bradykinin 1 receptor (B1R), Ca2+ FLIPR assay in CHO K1 hB1R cells; format: cell-based; conditions: B1R antagonism human; test substance 10 μM; Ca2+ FLIPR, CHO K1 hB1R cells
T1 construct: expressed in transfected cells; host or cells: CHO K1 cells
T1 sequence (P46663 1-353): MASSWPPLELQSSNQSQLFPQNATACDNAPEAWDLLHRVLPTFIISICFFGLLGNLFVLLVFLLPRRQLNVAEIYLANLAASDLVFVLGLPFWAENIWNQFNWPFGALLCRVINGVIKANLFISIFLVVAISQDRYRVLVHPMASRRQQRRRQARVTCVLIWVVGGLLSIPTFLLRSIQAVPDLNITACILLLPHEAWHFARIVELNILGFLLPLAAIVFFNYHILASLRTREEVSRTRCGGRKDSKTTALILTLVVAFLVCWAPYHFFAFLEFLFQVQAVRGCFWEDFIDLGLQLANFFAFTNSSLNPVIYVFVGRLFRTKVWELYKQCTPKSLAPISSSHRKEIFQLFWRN
Procedure, shortened: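 Peak Ca2+-dependent fluorescence in B1R-transfected CHO K1 cells measures antagonism of an EC80 agonist challenge given 10-20 min after compound. Agonist is Lys-Des-Arg9-bradykinin for human, Des-Arg9-bradykinin for rat receptor.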

[2] = target: T2, serotonin (5-HT) reuptake (Rattus norvegicus, UniProt P31652); assay: Inhibition of serotonin (5HT) reuptake in synaptosomes from rat brain; format: biochemical; conditions: test concentration of 10 μM
T2 construct: synaptosomes are freshly isolated from areas of the rat brain; from tissue; host or cells: rat brain synaptosomes (P2 fraction)
T2 sequence (P31652 whole entry): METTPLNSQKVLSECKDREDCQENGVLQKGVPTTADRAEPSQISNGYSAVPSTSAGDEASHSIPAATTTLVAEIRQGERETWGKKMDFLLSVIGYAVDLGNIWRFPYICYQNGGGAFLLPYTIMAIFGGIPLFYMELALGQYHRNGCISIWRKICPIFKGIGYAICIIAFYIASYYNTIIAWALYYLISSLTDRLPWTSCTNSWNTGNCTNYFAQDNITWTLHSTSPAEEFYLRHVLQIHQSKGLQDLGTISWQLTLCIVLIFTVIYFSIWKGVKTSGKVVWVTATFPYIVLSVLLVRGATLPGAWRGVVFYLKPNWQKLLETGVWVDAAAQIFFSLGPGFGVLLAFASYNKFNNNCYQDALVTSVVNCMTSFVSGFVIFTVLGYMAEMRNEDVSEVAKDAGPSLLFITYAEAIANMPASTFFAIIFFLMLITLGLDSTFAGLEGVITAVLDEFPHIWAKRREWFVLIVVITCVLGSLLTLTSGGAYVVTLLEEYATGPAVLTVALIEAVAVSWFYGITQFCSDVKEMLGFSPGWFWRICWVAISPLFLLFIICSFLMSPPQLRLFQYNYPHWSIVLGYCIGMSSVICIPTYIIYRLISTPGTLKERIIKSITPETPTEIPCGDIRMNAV
Procedure, shortened: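 Compounds screened at 10 μM and reported as percent inhibition of serotonin uptake. Uptake measured in a freshly prepared P2 synaptosomal fraction from rat brain.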

Structure (SMILES)	B1R Ant. h [10 μM] % Inhibition [1]	5-HT (inhibition of reuptake of serotonin, % inhibition) [2]
COc1cc(C)c(S(=O)(=O)N2CCC(CCOCC(=O)NCC3CCC(C(c4cccc(F)c4)N(C)C)CC3)CC2)c(C)c1C (centres unmarked) [Example 319]	0%	87%
COc1cc(C)c(S(=O)(=O)N2CCCC(OCC(=O)NC3CCC(C(c4cccc(F)c4)N(C)C)CC3)C2)c(C)c1C (centres unmarked) [Example 279]	23%	85%
COc1cc(C)c(S(=O)(=O)N2CCN(CCOCC(=O)NCCC3CCC(C(c4ccc(Cl)cc4)N(C)C)CC3)CC2)c(C)c1C (centres unmarked) [Example 320]	73%	98%
CN(C)C(c1ccc(F)cc1)C1CCC(NC(=O)COCCN(C)S(=O)(=O)c2ccc(F)cc2)CC1 (centres unmarked) [Example 357]	7%	86%
COc1cc(C)c(S(=O)(=O)N2CCC(OCC(=O)NCCC3CCC(C(c4cccc(F)c4)N(C)C)CC3)C2)c(C)c1 (centres unmarked) [Example 307]	105%	97%
CN(C)C(c1ccc(Cl)cc1)C1CCC(CCNC(=O)COCCN(C)S(=O)(=O)c2ccc(Cl)cc2Cl)CC1 (centres unmarked) [Example 291]	105%	81%
CN(C)C(c1cccc(F)c1)C1CCC(CNC(=O)COC2CCN(S(=O)(=O)c3ccccc3)C2)CC1 (centres unmarked) [Example 355]	−7%	102%
CN(C)C(c1ccc(Cl)cc1)C1CCC(CNC(=O)COCCN(Cc2ccccc2)S(=O)(=O)c2ccccc2)CC1 (centres unmarked) [Example 343]	12%	94%
CN(C)C(c1ccc(F)cc1)C1CCC(CNC(=O)COCCN(C)S(=O)(=O)c2c(Cl)cccc2Cl)CC1 (centres unmarked) [Example 334]	103%	83%
Cc1ccc(S(=O)(=O)N(C)CCOCC(=O)NCC2CCC(C(c3ccc(F)cc3)N(C)C)CC2)cc1 (centres unmarked) [Example 362]	7%	105%
CN(C)C(c1cccs1)C1CCC(NC(=O)COCCN(C)S(=O)(=O)c2ccc(OC(F)(F)F)cc2)CC1 (centres unmarked) [Example 282]	−31%	52%
CN(C)C(c1cccc(F)c1)C1CCC(NC(=O)COC2CCN(S(=O)(=O)c3ccc(Cl)cc3Cl)C2)CC1 (centres unmarked) [Example 283]	50%	91%
COc1cc(C)c(S(=O)(=O)N(CCOCC(=O)NCCC2CCC(C(c3cccc(F)c3)N(C)C)CC2)Cc2ccccc2)c(C)c1 (centres unmarked) [Example 358]	66%	92%
COc1cc(C)c(S(=O)(=O)N(C)CCOCC(=O)NCC2CCC(C(c3ccc(Cl)cc3)N(C)C)CC2)c(C)c1 (centres unmarked) [Example 348]	103%	83%
COc1ccc(S(=O)(=O)N2CCCCC2COCC(=O)NCC2CCC(C(c3ccc(F)cc3)N(C)C)CC2)cc1 (centres unmarked) [Example 345]	76%	92%
CN(C)C(c1cccs1)C1CCC(NC(=O)COCCN2CCN(S(=O)(=O)c3ccccc3)CC2)CC1 (centres unmarked) [Example 341]	−1%	85%
COc1ccc(S(=O)(=O)N(C)CCOCC(=O)NCCC2CCC(C(c3cccc(F)c3)N(C)C)CC2)cc1OC (centres unmarked) [Example 293]	−7%	95%

Structure (SMILES)	B1R Ant. h [10 μM] % Inhibition [1]	5-HT (inhibition of reuptake of serotonin, % inhibition) [2]
CN(C)C(c1ccc(F)cc1)C1CCC(CCNC(=O)COCCN(C)S(=O)(=O)c2c(Cl)cccc2Cl)CC1 (centres unmarked) [Example 285]	97%	89%
CCN(CCOCC(=O)NCC1CCC(C(c2ccc(F)cc2)N(C)C)CC1)S(=O)(=O)c1c(C)cc(OC)c(C)c1C (centres unmarked) [Example 327]	101%	90%
Cc1ccc(S(=O)(=O)N2CCC(OCC(=O)NCC3CCC(C(c4ccc(Cl)cc4)N(C)C)CC3)C2)cc1 (centres unmarked) [Example 304]	22%	88%
CN(C)C(c1ccc(F)cc1)C1CCC(NC(=O)COCC2CCCN2S(=O)(=O)c2ccc(Cl)c(Cl)c2)CC1 (centres unmarked) [Example 344]	65%	97%
COc1ccc(S(=O)(=O)N2CCC(OCC(=O)NC3CCC(C(c4cccc(F)c4)N(C)C)CC3)C2)cc1OC (centres unmarked) [Example 323]	−14%	91%
CN(C)C(c1ccc(Cl)cc1)C1CCC(CCNC(=O)COCCN(C)S(=O)(=O)c2cccc(C(F)(F)F)c2)CC1 (centres unmarked) [Example 289]	51%	94%
COc1ccc(S(=O)(=O)N(C)CCOCC(=O)NCC2CCC(C(c3ccc(Cl)cc3)N(C)C)CC2)cc1 (centres unmarked) [Example 324]	42%	83%
COc1ccc(S(=O)(=O)N2CCCCC2COCC(=O)NCC2CCC(C(c3ccc(Cl)cc3)N(C)C)CC2)c(OC)c1 (centres unmarked) [Example 280]	51%	78%
CN(C)C(c1ccc(Cl)cc1)C1CCC(CNC(=O)COCCN(C)S(=O)(=O)c2cccc(C(F)(F)F)c2)CC1 (centres unmarked) [Example 314]	74%	93%
CN(C)C(c1cccc(F)c1)C1CCC(CCNC(=O)COCC2CCCN(S(=O)(=O)c3ccccc3)C2)CC1 (centres unmarked) [Example 295]	7%	99%
COc1ccc(S(=O)(=O)N2CCCC2COCC(=O)NCCC2CCC(C(c3ccc(Cl)cc3)N(C)C)CC2)cc1 (centres unmarked) [Example 346]	52%	95%
CN(C)C(c1ccc(F)cc1)C1CCC(NC(=O)COCCN(Cc2ccccc2)S(=O)(=O)c2ccccc2)CC1 (centres unmarked) [Example 336]	20%	96%
CN(C)C(c1ccc(F)cc1)C1CCC(NC(=O)COCCN(C)S(=O)(=O)c2ccc(Cl)cc2Cl)CC1 (centres unmarked) [Example 356]	92%	84%
CN(C)C(c1ccc(Cl)cc1)C1CCC(CNC(=O)COC2CCN(S(=O)(=O)c3ccccc3)C2)CC1 (centres unmarked) [Example 299]	−15%	103%
CN(C)C(c1ccc(Cl)cc1)C1CCC(CNC(=O)COCC2CCCN(S(=O)(=O)c3ccccc3)C2)CC1 (centres unmarked) [Example 294]	−3%	88%
CN(C)C(c1ccc(Cl)cc1)C1CCC(CNC(=O)COC2CCN(S(=O)(=O)c3cccc(C(F)(F)F)c3)C2)CC1 (centres unmarked) [Example 331]	30%	84%
COc1ccc(S(=O)(=O)N2CCCCC2COCC(=O)NCCC2CCC(C(c3ccc(F)cc3)N(C)C)CC2)cc1 (centres unmarked) [Example 349]	68%	94%

Reference: patent US8106055B2, “Substituted amide compounds” (Gruenenthal GmbH, priority 2007, dated 2012)
